Assay results from US20090239877A1, “NOVEL 1,2,4-TRIAZOLE DERIVATIVES AND PROCESS OF MANUFACTURING THEREOF” (AETERNA ZENTARIS GmbH, priority 2008, published 2009).

Tests used:
[1] = target: T1, human GHS-R 1a (Homo sapiens, UniProt Q92847); test: GHS-R 1a receptor-ligand binding assay (membrane preparations from transfected LLC PK-1 cells); design: expressed in transfected cells; conditions: displacement of 125I-His9-ghrelin; plasma membranes of LLC PK-1 cells transiently transfected with human GHS-R 1a; mean of at least two independent experiments in triplicates
Experimental: II) GHS-R 1a Receptor-Ligand Binding Assay (Membrane Preparations from Transfected LLC PK-1 Cells)
The GHS-R 1a receptor binding/affinity studies were performed according to Guerlavais et al. (J. Med. Chem. 2003, 46: 1191-1203).
Isolated plasma membranes from LLC PK-1 cells, a renal epithelial cell line originally derived from porcine kidneys (ECACC No. 86121112) (10 μg of protein), that were transiently transfected with human GHS-R 1a cDNA (Guerlavais et al., J. Med. Chem. 2003, 46: 1191-1203), were incubated in homogenization buffer HB [50 mM Tris (pH 7.3), 5 mM MgCl2, 2.5 mM EDTA, and 30 μg/mL bacitracin (Sigma)] for 60 min at 25° C. (steady-state conditions) with […] ^125I-His^9-ghrelin (Amersham) in the presence or absence of competing compounds (compounds of the invention).
Nonspecific binding was defined using an excess (10^−6 M) of ghrelin. The binding reaction was stopped by addition of 4 mL of ice-cold HB followed by rapid filtration over Whatman GP/C filters presoaked with 0.5% polyethyleneimine to prevent excessive binding of radioligand to the filters. Filters were rinsed three times with 3 mL of icecold wash buffer [50 mM Tris (pH 7.3), 10 mM MgCl2, 2.5 mM EDTA, and 0.015% (w/v) X-100 Triton], and the radioactivity bound to membranes was measured in a gammacounter (Kontron Analytical Gamma Matic, Automatic gamma counting system).
The concentration of test compounds required to inhibit radiolabelled ghrelin binding by 50% (IC50) was determined by fitting competitive binding curves using non-linear regression (PRISM 3.0, Graph Pad San Diego, USA).
In the following table 2 results obtained for selected compounds of the invention are presented in comparison to an example of the prior art. IC50 values given are the mean of at least two independent experiments performed in triplicates.

[2] = target: T1, human GHS-R 1a; test: In vitro intracellular calcium release assay using human GHS-R 1a transfected CHO cells; format: cell-based; design: expressed in transfected cells; host or cells: CHO-K1 Chinese hamster ovary cells (ATCC No. CCL-61), transient transfection by electroporation; conditions: for EC50: agonists, dose-response curve of intracellular calcium release; for activation at 1 µM: intracellular calcium release, compound at 10^-6 M, relative to basal level (0%) and 1 μM ghrelin (100%)
Experimental: The ability to properly activate the receptors is assessed for any compound of the invention by comparing the degree of activation (increase of intracellular calcium) of GHS-R 1a by the compound to be tested (at 10^−6 M concentration) to the degree of activation (increase of intracellular calcium) of GHS-R 1a by 10^−6 M ghrelin (100%) and to the basal level (0%). Such assessment can be readily performed by the skilled artisan due to his expert knowledge. The output is a percentage value for each compound to be tested. […]
III) In Vitro Intracellular Calcium Release Assay Using Human GHS-R 1a Transfected CHO Cells
The potential of the compounds of the invention to modulate GHS receptor activity was assessed by an in vitro intracellular Calcium release assay employing CHO cells that were transfected with human GHS-R 1a.
Release of intracellular calcium or inhibition thereof was measured using the fluorescent calcium indicator assay (FLIPR) and Fluo-4 AM.
CHO cells (CHO-KI Chinese Hamster Ovary cell line, ATCC No. CCL-61) were transiently transfected with human GHS-R 1a cDNA by electroporation and plated into 96-well black bottom plates (Corning 3603) (80,000 cells/well). Transient transfections were performed using the Easyject Optima Electroporator (Equibio), according to the manufacturer's instructions.
Transfected cells were grown in Dulbecco's modified Eagle's medium without phenol red, supplemented with 10% (v/v) non-essential amino acids, […] glutamine and streptomycin-penicillin (250 μg/ml-250 u/ml) (all purchased from Cambrex) at 37° C., 5% CO2 in a humidified atmosphere for 24 hours.
After incubation, transfected cells were washed with 150 μl Buffer A [Hanks' balanced salt solution (Sigma H-6648), 0.5% (v/v) BSA (Sigma A-7906), 20 mM CaCl2, 2.5 mM probenecid (pH 7.4, dissolved in 1 M NaOH) (Sigma P-8761)] and were then loaded with fluorescent calcium indicator Fluo-4 AM (10^−6 M) (Interchim UP72972) prepared in Buffer A, additionally containing 0.06% pluronic acid (Molecular probes P-6867) (a […] detergent which facilitates Fluo-4AM ester loading). (Loading: 100 μl per well of Buffer A containing 120 μl/ml Pluronic Acid and 1 μM Fluo-4AM was added to the cells).
After loading with Fluo-4 AM, transfected cells were incubated for 1 hour in the dark at 37° C.
Compounds to be tested were dissolved in Buffer A in triplicates at a concentration of 10^−6 M and distributed into another 96-well plate (Fisher Labosi A1210500).
Following incubation, excess Fluo-4AM was removed, 100 μl of Buffer A was added to each well at room temperature and immediately removed by aspiration. This was then repeated, before adding 50 μl Buffer A to each well.
Transfected cells were further incubated room temperature for 30 min to allow complete de-esterification of intracellular Fluo-4AM esters.
Subsequently, both plates, the black-bottom plate containing transfected cells and the microtiter plate containing the compounds to be tested, were then placed into a temperature-regulated (25° C.) FlexStation machine (benchtop scanning fluorometer Flex Station II, Molecular Devices, Sunnyvale, Calif., USA) for fluorescence output measurements.
Basal fluorescence output from the transfected cells was measured for 15 sec and then 50 μl of the compounds to be tested were automatically distributed into the wells containing the transfected cells. The fluorescence output was then recorded for a further 45 sec.
Excitation and emission wavelengths were 485 nm and 525 nm, respectively. Basal fluorescence intensity of Fluo-4AM-loaded transfected cells without compounds to be tested varied between 800-1200 arbitrary units, whereas maximal fluorescence output of dye-loaded transfected cells upon incubation with the compounds to be tested varied between 5000-7000 arbitrary units and was equivalent to that achieved by stimulation of dye-loaded transfected cells with 10^−6 M ghrelin. […]

T1 sequence (Q92847 whole entry): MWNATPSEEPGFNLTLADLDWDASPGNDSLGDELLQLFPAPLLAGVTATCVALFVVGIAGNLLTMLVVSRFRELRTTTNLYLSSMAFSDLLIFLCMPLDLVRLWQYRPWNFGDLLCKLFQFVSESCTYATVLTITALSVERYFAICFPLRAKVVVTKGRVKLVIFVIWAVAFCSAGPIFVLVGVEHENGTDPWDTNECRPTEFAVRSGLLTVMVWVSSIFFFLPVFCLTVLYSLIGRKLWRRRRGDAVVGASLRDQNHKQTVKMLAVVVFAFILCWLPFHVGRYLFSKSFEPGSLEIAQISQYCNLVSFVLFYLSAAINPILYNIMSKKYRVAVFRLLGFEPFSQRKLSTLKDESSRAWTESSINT

Row | Structure (SMILES) | IC50 [1] | EC50 [2] | activation at 1 µM [2]
1 | O=C(N[C@H](Cc1c[nH]c2ccccc12)c1nnc(CCc2c[nH]c3ccccc23)n1Cc1cccc2ccccc12)c1cnccn1 [Compound 32, N-((R)-1-(5-(2-(1H-indol-3-yl)ethyl)-4-((naphthalen-1-yl)methyl)-4H-1,2,4-triazol-3-yl)-2-(1H-indol-3-yl)ethyl)pyrazine-2-carboxamide] | 122 nM |  | 0%
2 | COc1ccc(Cn2c(CCc3c[nH]c4ccccc34)nnc2[C@@H](Cc2c[nH]c3ccccc23)NC(=O)C2(N)CCNCC2)cc1 [Compound 47, N-((R)-1-(5-(2-(1H-indol-3-yl)ethyl)-4-(4-methoxybenzyl)-4H-1,2,4-triazol-3-yl)-2-(1H-indol-3-yl)ethyl)-4-aminopiperidine-4-carboxamide] | 150 nM | 38 nM | 100%
3 | COc1ccc(Cn2c(CCc3ccccc3)nnc2[C@@H](Cc2c[nH]c3ccccc23)NC(=O)c2cccc(CN)c2)c(OC)c1 [Compound 6, N-((R)-1-(4-(2,4-dimethoxybenzyl)-5-phenethyl-4H-1,2,4-triazol-3-yl)-2-(1H-indol-3-yl)ethyl)-3-(amino-methyl)benzamide] | 204 nM |  | 4%
4 | COc1ccc(Cn2c(CCc3ccccc3)nnc2[C@@H](Cc2c[nH]c3ccccc23)NC(=O)c2ccccc2)c(OC)c1 [Compound 5, N-((R)-1-(4-(2,4-dimethoxybenzyl)-5-phenethyl-4H-1,2,4-triazol-3-yl)-2-(1H-indol-3-yl)ethyl)benzamide] | 11.8 nM | 16 nM | 31%
5 | O=C(N[C@H](Cc1c[nH]c2ccccc12)c1nnc(CCCc2c[nH]c3ccccc23)n1Cc1cccc2ccccc12)C1CCCN1 (stereo partly drawn) [Compound 44, N-((R)-1-(5-(3-(1H-indol-3-yl)propyl)-4-((naphthalen-1-yl)methyl)-4H-1,2,4-triazol-3-yl)-2-(1H-indol-3-yl)ethyl)pyrrolidine-2-carboxamide] | 600 nM | 12 nM | 100%
6 | O=C(Cc1ccccn1)N[C@H](Cc1c[nH]c2ccccc12)c1nnc(CCc2c[nH]c3ccccc23)n1Cc1cccc2ccccc12 [Compound 30, N-((R)-1-(5-(2-(1H-indol-3-yl)ethyl)-4-((naphthalen-1-yl)methyl)-4H-1,2,4-triazol-3-yl)-2-(1H-indol-3-yl)ethyl)-2-(pyridin-2-yl)acetamide] | 125 nM |  | 0%
7 | O=C(N[C@H](Cc1c[nH]c2ccccc12)c1nnc(CCc2c[nH]c3ccccc23)n1Cc1cccc2ccccc12)c1ccccn1 [Compound 18, N-((R)-1-(5-(2-(1H-indol-3-yl)ethyl)-4-((naphthalen-1-yl)methyl)-4H-1,2,4-triazol-3-yl)-2-(1H-indol-3-yl)ethyl)picolinamide] | 5.3 nM |  | 1%

Next, values leading:

Row | IC50 [1] | EC50 [2] | activation at 1 µM [2] | Structure (SMILES)
8 | 21.1 nM | 1 nM |  | O=C(N[C@H](Cc1c[nH]c2ccccc12)c1nnc(CCCc2c[nH]c3ccccc23)n1Cc1cccc2ccccc12)C1CCNCC1 [Compound 39, N-((R)-1-(5-(3-(1H-indol-3-yl)propyl)-4-((naphthalen-1-yl)methyl)-4H-1,2,4-triazol-3-yl)-2-(1H-indol-3-yl)ethyl)piperidine-4-carboxamide]
9 | 44.5 nM | 10.1 nM | 100% | NC1(C(=O)N[C@H](Cc2c[nH]c3ccccc23)c2nnc(CCc3ccccc3)n2Cc2cccc3ccccc23)CCNCC1 [Compound 49, N-((R)-2-(1H-indol-3-yl)-1-(4-((naphthalen-1-yl)methyl)-5-phenethyl-4H-1,2,4-triazol-3-yl)ethyl)-4-aminopiperidine-4-carboxamide]
10 | 500 nM | 34 nM | 100% | CC(C)(N)C(=O)N[C@H](Cc1c[nH]c2ccccc12)c1nnc(CCCc2c[nH]c3ccccc23)n1Cc1ccccc1 [Compound 42, N-((R)-1-(5-(3-(1H-indol-3-yl)propyl)-4-benzyl-4H-1,2,4-triazol-3-yl)-2-(1H-indol-3-yl)ethyl)-2-amino-2-methylpropanamide]
11 | 16 nM | 4.4 nM | 106% | COc1ccc(Cn2c(CCc3cc4ccccc4[nH]3)nnc2[C@@H](Cc2c[nH]c3ccccc23)NC(=O)C2(N)CCNCC2)cc1 [Compound 3, N-((R)-1-(5-(2-(1H-indol-2-yl)ethyl)-4-(4-methoxybenzyl)-4H-1,2,4-triazol-3-yl)-2-(1H-indol-3-yl)ethyl)-4-aminopiperidine-4-carboxamide]
12 | 5 nM | 1.5 nM | 120% | O=C(N[C@H](Cc1c[nH]c2ccccc12)c1nnc(Cc2ccccc2)n1Cc1ccc(Cl)c(Cl)c1)C1CCNCC1 [Compound 33, N-((R)-1-(4-(3,4-dichlorobenzyl)-5-benzyl-4H-1,2,4-triazol-3-yl)-2-(1H-indol-3-yl)ethyl)piperidine-4-carboxamide]
13 | 6.6 nM | 4.1 nM | 90% | COc1ccc(Cn2c(CCc3ccccc3)nnc2[C@@H](Cc2c[nH]c3ccccc23)NC(=O)C2(N)CCNCC2)cc1 [Compound 4, N-((R)-1-(4-(4-methoxybenzyl)-5-phenethyl-4H-1,2,4-triazol-3-yl)-2-(1H-indol-3-yl)ethyl)-4-aminopiperidine-4-carboxamide]
14 | 4 nM | 2.4 nM | 94% | O=C(N[C@H](Cc1c[nH]c2ccccc12)c1nnc(CCc2c[nH]c3ccccc23)n1Cc1cccc2ccccc12)C1CCNCC1 [Compound 17, N-((R)-1-(5-(2-(1H-indol-3-yl)ethyl)-4-((naphthalen-1-yl)methyl)-4H-1,2,4-triazol-3-yl)-2-(1H-indol-3-yl)ethyl)piperidine-4-carboxamide]
